{"source": "paper PMC7503713", "about": "“GANT61 Reduces Hedgehog Molecule (GLI1) Expression and Promotes Apoptosis in Metastatic Oral Squamous Cell Carcinoma Cells” (International Journal of Molecular Sciences, 2020)", "key": {"AGP01": {"tested_on": "AGP01", "test": "alamarBlue cytotoxicity assay, AGP01", "format": "cell-based, human", "settings": "72 h of incubation", "description": "(§1) To assess the cytotoxicity of the GLI inhibitor GANT61 (Sigma-Aldrich, St. Louis, MO, USA) in tumor and non-tumor cell lines, an alamarBlue assay (Sigma-Aldrich Chemical Co, St. Louis, MO, USA) was performed after 72 h of exposure to the inhibitor, as described by Ahmed et al., 1994 [46]. Cells were distributed on 96-well plates at a density of 7 × 10^4 cells/mL for adhered cells, and 3 × 10^5 cells/mL for cells in suspension. All tested compounds were dissolved in DMSO, added to wells containing 100 µL of cells in complete medium, and then incubated for 72 h. Eight concentrations of GANT61 (0.19 to 50 µg/mL), Doxorubicin (Laboratory IMA S.A.I.C., Buenos Aires, Argentina), and 5-Fluorouracil (5-FU, Sigma-Aldrich, St. Louis, MO, USA), both used as positive controls at concentrations ranging from 0.03 to 5 µg/mL, were added to respective wells. […] Absorbance was measured at 570 nm (reduced) and 595 nm (oxidized) wavelengths, using a Spectramax 190 plate reader (Molecular Devices; Sunnyvale, CA, USA).\n(§2) Statistical analyses were performed, using GraphPad Prism v. […] Data were analyzed according to distribution along the normal Gaussian curve. […] Differences between groups resulting from in vitro assays were evaluated by ANOVA (analysis of variance) testing, followed by the Student–Newman–Keuls test. […]"}, "SCC15": {"tested_on": "SCC15", "test": "alamarBlue cytotoxicity assay, SCC15", "format": "cell-based, human", "settings": "72 h of incubation", "description": "as §1, §2"}}}
{"smiles": "CN(C)c1ccccc1CN1CCCN(Cc2ccccc2N(C)C)C1c1ccncc1", "note": "[GANT61]", "values": [{"measurement": "IC50", "setting": "AGP01", "result": "> 116", "unit": "µM"}, {"measurement": "IC50", "setting": "SCC15", "result": 72.7, "unit": "µM"}]}
